Reference: the supplement of paper PMC10307832

Tests used:
Test in all cases: relative viability (nuclei count vs DMSO), 5 days (fraction); higher = more cells survive
NCI-H441 = system: NCI-H441
In short: (§1)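 Cells from lung cancer lines were seeded into 1536-well plates and, one day later, dosed by pin tool. Treatments were either a single drug or a fixed dose of an anchor drug with five library-drug doses (not always all listed) in √10 steps. After 5 days, nuclei were stained in a one-step fixation (final 0.05% Triton X-100, 1% formaldehyde, 1 ug/ml Hoechst) and counted on 4× images, and relative viability is the treated-to-vehicle nuclei ratio, as the median of duplicate plates.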

SW 900 = system: SW 900
In short: as §1

LCLC-103H = system: LCLC-103H
In short: as §1

NCI-H460 = system: NCI-H460
In short: as §1

NCI-H1651 = system: NCI-H1651
In short: as §1

SK-MES-1 = system: SK-MES-1
In short: as §1

LXF-289 = system: LXF-289
In short: as §1

NCI-H661 = system: NCI-H661
In short: as §1

RERF-LC-KJ = system: RERF-LC-KJ
In short: as §1

NCI-H1355 = system: NCI-H1355
In short: as §1

NCI-H727 = system: NCI-H727
In short: as §1

NCI-H3122 = system: NCI-H3122
In short: as §1

NCI-H1792 = system: NCI-H1792
In short: as §1

NCI-H1915 = system: NCI-H1915
In short: as §1

PC-14 = system: PC-14
In short: as §1

NCI-H2347 = system: NCI-H2347
In short: as §1

NCI-H520 = system: NCI-H520
In short: as §1

NCI-H1755 = system: NCI-H1755
In short: as §1

NCI-H322M = system: NCI-H322M
In short: as §1

NCI-H522 = system: NCI-H522
In short: as §1

`COc1nc(C)cnc1NS(=O)(=O)c1cccnc1-c1ccc(-c2nnco2)cc1` [Zibotentan] + CC(=O)c1c(C)c2cnc(Nc3ccc(N4CCNCC4)cn3)nc2n(C2CCCC2)c1=O [Palbociclib] (partner 0.5 µM) gave a relative viability (NCI-H441; first compound 0.08 µM) of 0.237, a relative viability (NCI-H441; first compound 0.253 µM) of 0.197 and a relative viability (NCI-H441; first compound 0.8 µM) of 0.254. It also gave a relative viability (NCI-H441; first compound 2.53 µM) of 0.24, a relative viability (SW 900; first compound 0.08 µM) of 0.541 and a relative viability (SW 900; first compound 0.253 µM) of 0.565. For the same compound, the relative viability (SW 900; first compound 0.8 µM) was 0.487, the relative viability (SW 900; first compound 2.53 µM) was 0.564 and the relative viability (LCLC-103H; first compound 0.08 µM) was 0.459. For the same compound, the relative viability (LCLC-103H; first compound 0.253 µM) was 0.477, the relative viability (LCLC-103H; first compound 0.8 µM) was 0.449 and the relative viability (LCLC-103H; first compound 2.53 µM) was 0.442. It also gave a relative viability (NCI-H460; first compound 0.08 µM) of 0.157, a relative viability (NCI-H460; first compound 0.253 µM) of 0.0391 and a relative viability (NCI-H460; first compound 0.8 µM) of 0.139. The relative viability (NCI-H460; first compound 2.53 µM) was 0.25, the relative viability (NCI-H1651; first compound 0.08 µM) was 0.521 and the relative viability (NCI-H1651; first compound 0.253 µM) was 0.522. The relative viability (NCI-H1651; first compound 0.8 µM) was 0.48, the relative viability (NCI-H1651; first compound 2.53 µM) was 0.492 and the relative viability (SK-MES-1; first compound 0.08 µM) was 0.309. For the same compound, the relative viability (SK-MES-1; first compound 0.253 µM) was 0.284, the relative viability (SK-MES-1; first compound 0.8 µM) was 0.35 and the relative viability (SK-MES-1; first compound 2.53 µM) was 0.362. The relative viability (LXF-289; first compound 0.08 µM) was 0.577, the relative viability (LXF-289; first compound 0.253 µM) was 0.55 and the relative viability (LXF-289; first compound 0.8 µM) was 0.592. It also gave a relative viability (LXF-289; first compound 2.53 µM) of 0.61, a relative viability (NCI-H661; first compound 0.08 µM) of 0.421 and a relative viability (NCI-H661; first compound 0.253 µM) of 0.384. The relative viability (NCI-H661; first compound 0.8 µM) was 0.455, the relative viability (NCI-H661; first compound 2.53 µM) was 0.396 and the relative viability (RERF-LC-KJ; first compound 0.08 µM) was 1.1. For the same compound, the relative viability (RERF-LC-KJ; first compound 0.253 µM) was 0.999, the relative viability (RERF-LC-KJ; first compound 0.8 µM) was 1.08 and the relative viability (RERF-LC-KJ; first compound 2.53 µM) was 1.14. The relative viability (NCI-H1355; first compound 0.08 µM) was 0.407, the relative viability (NCI-H1355; first compound 0.253 µM) was 0.418 and the relative viability (NCI-H1355; first compound 0.8 µM) was 0.388. It also gave a relative viability (NCI-H1355; first compound 2.53 µM) of 0.435, a relative viability (NCI-H727; first compound 0.08 µM) of 0.623 and a relative viability (NCI-H727; first compound 0.253 µM) of 0.667. It also gave a relative viability (NCI-H727; first compound 0.8 µM) of 0.73, a relative viability (NCI-H727; first compound 2.53 µM) of 0.658 and a relative viability (NCI-H3122; first compound 0.08 µM) of 0.186. It also gave a relative viability (NCI-H3122; first compound 0.253 µM) of 0.177, a relative viability (NCI-H3122; first compound 0.8 µM) of 0.154 and a relative viability (NCI-H3122; first compound 2.53 µM) of 0.18. The relative viability (NCI-H1792; first compound 0.08 µM) was 0.77, the relative viability (NCI-H1792; first compound 0.253 µM) was 0.551 and the relative viability (NCI-H1792; first compound 0.8 µM) was 0.525. It also gave a relative viability (NCI-H1792; first compound 2.53 µM) of 0.578, a relative viability (NCI-H1915; first compound 0.08 µM) of 0.586 and a relative viability (NCI-H1915; first compound 0.253 µM) of 0.499. For the same compound, the relative viability (NCI-H1915; first compound 0.8 µM) was 0.546, the relative viability (NCI-H1915; first compound 2.53 µM) was 0.569 and the relative viability (PC-14; first compound 0.08 µM) was 0.68. It also gave a relative viability (PC-14; first compound 0.253 µM) of 0.459, a relative viability (PC-14; first compound 0.8 µM) of 0.607 and a relative viability (PC-14; first compound 2.53 µM) of 0.519. For the same compound, the relative viability (NCI-H2347; first compound 0.08 µM) was 0.407, the relative viability (NCI-H2347; first compound 0.253 µM) was 0.445 and the relative viability (NCI-H2347; first compound 0.8 µM) was 0.439. It also gave a relative viability (NCI-H2347; first compound 2.53 µM) of 0.454, a relative viability (NCI-H520; first compound 0.08 µM) of 0.219 and a relative viability (NCI-H520; first compound 0.253 µM) of 0.208. The relative viability (NCI-H520; first compound 0.8 µM) was 0.208, the relative viability (NCI-H520; first compound 2.53 µM) was 0.248 and the relative viability (NCI-H1755; first compound 0.08 µM) was 0.421. The relative viability (NCI-H1755; first compound 0.253 µM) was 0.497, the relative viability (NCI-H1755; first compound 0.8 µM) was 0.447 and the relative viability (NCI-H1755; first compound 2.53 µM) was 0.453. It also gave a relative viability (NCI-H322M; first compound 0.08 µM) of 0.465, a relative viability (NCI-H322M; first compound 0.253 µM) of 0.408 and a relative viability (NCI-H322M; first compound 0.8 µM) of 0.49. The relative viability (NCI-H322M; first compound 2.53 µM) was 0.521, the relative viability (NCI-H522; first compound 0.08 µM) was 0.981 and the relative viability (NCI-H522; first compound 0.253 µM) was 0.823. It also gave a relative viability (NCI-H522; first compound 0.8 µM) of 0.919 and a relative viability (NCI-H522; first compound 2.53 µM) of 0.855.
